The source of these data is patent US12534452B2, “N-(1H-imidazol-2-yl)benzamide compound and pharmaceutical composition comprising the same as active ingredient” (KAINOS MEDICINE, INC., priority 2019, dated 2026).

The structures appear in SMILES notation.

This test concerns the target IRAK4 (Homo sapiens (Human), UniProt Q9NWZ3). The test is described as follows: In vitro IRAK4 phosphorylation activity assay. Format: biochemical. The following applies: [γ-33P]-ATP, myelin basic protein substrate, 40 minutes at room temperature; categories. In outline:
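Radiometric filter-binding assay, no compound–kinase preincubation; 8 mM MOPS pH 7.0, 0.2 mM EDTA, 10 mM Mg acetate, 0.33 mg/mL myelin basic protein substrate, [γ-33P]-ATP. Reaction 40 min at room temperature, stopped with phosphoric acid, scintillation counting; IC50 reported in categories.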

Sequence of IRAK4 (Q9NWZ3 whole entry): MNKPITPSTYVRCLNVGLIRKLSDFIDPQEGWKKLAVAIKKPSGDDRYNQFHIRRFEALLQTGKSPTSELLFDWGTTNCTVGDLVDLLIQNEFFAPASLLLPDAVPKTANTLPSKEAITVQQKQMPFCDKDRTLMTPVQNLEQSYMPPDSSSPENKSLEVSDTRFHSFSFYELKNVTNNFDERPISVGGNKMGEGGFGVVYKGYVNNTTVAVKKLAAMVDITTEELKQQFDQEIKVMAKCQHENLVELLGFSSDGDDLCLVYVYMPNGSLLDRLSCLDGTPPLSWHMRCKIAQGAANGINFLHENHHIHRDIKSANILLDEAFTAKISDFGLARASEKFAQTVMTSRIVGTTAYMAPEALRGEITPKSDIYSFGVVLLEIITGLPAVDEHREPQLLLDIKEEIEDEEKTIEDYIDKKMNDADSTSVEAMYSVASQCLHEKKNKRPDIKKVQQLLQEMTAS

`CNC(=O)CCc1cn(-c2ccccc2)c(NC(=O)c2cccc(-c3cn[nH]c3)c2)n1` [Example 33, N-(4-(3-(methylamino)-3-oxopropyl)-1-phenyl-1H-imidazol-2-yl)-3-(1H-pyrazol-4-yl)benzamide] gave an IC50 of less than 50 nM.

Consider `O=C(CCc1cn(Cc2ccccc2)c(NC(=O)c2cccc(-c3cn[nH]c3)c2)n1)Nc1ccccc1` [Example 292, N-(1-benzyl-4-(3-oxo-3-(phenylamino)propyl)-1H-imidazol-2-yl)-3-(1H-pyrazol-4-yl)benzamide], for which the IC50 was more than 100 nM.

Compound `Cn1cc(-c2cccc(C(=O)Nc3nc(CCCCN4CCCC4=O)cn3-c3ccccc3)c2)cn1` [Example 224, 3-(1-methyl-1H-pyrazol-4-yl)-N-(4-(4-(2-oxopyrrolidin-1-yl)butyl)-1-phenyl-1H-imidazol-2-yl)benzamide] came in with an IC50 of less than 50 nM.

In turn, `CN1CCN(NC(=O)CCc2cn(-c3ccccc3)c(NC(=O)c3cccc(-c4cn[nH]c4)c3)n2)CC1` [Example 9, N-(4-(3-((4-methylpiperazin-1-yl)amino)-3-oxopropyl)-1-phenyl-1H-imidazol-2-yl)-3-(1H-pyrazol-4-yl)benzamide] came in with an IC50 of more than 100 nM.

`CN1CCN(C(=O)CCc2cn(-c3ccccc3)c(NC(=O)c3cccc(-c4cnn(C)c4)c3)n2)CC1` [Example 194, 3-(1-methyl-1H-pyrazol-4-yl)-N-(4-(3-(4-methylpiperazin-1-yl)-3-oxopropyl)-1-phenyl-1H-imidazol-2-yl)benzamide]: the IC50 was less than 50 nM.

For the compound `Cn1cc(-c2cccc(C(=O)Nc3nc(CCCCCC(=O)N4CCCCC4)cn3-c3ccccc3)c2)cn1` [Example 200, 3-(1-methyl-1H-pyrazol-4-yl)-N-(4-(6-oxo-6-(piperidin-1-yl)hexyl)-1-phenyl-1H-imidazol-2-yl)benzamide], the IC50 is less than 50 nM.

In the case of `COC[C@H]1CCCN1NC(=O)CCCCc1cn(-c2ccccc2)c(NC(=O)c2cccc(-c3cn[nH]c3)c2)n1` [Example 85, (R)—N-(4-(5-((2-(methoxymethyl)pyrrolidin-1-yl)amino)-5-oxopentyl)-1-phenyl-1H-imidazol-2-yl)-3-(1H-pyrazol-4-yl)benzamide], the IC50 was less than 50 nM.

In the case of `C[C@H]1CCCN1C(=O)CCc1cn(-c2ccccc2)c(NC(=O)c2cccc(-c3cn[nH]c3)c2)n1` [Example 24, (S)—N-(4-(3-(2-methylpyrrolidin-1-yl)-3-oxopropyl)-1-phenyl-1H-imidazol-2-yl)-3-(1H-pyrazol-4-yl)benzamide], the IC50 was less than 50 nM.

Turning to `CCOC(C)n1cc(-c2cccc(C(=O)Nc3nc(CCCC(=O)NC4CC4)cn3-c3ccccc3)c2)cn1` (centres unmarked) [Example 72, N-(4-(4-(cyclopropylamino)-4-oxobutyl)-1-phenyl-1H-imidazol-2-yl)-3-(1-(1-ethoxyethyl)-1H-pyrazol-4-yl)benzamide], the IC50 was more than 100 nM.

`O=C(Nc1nc(CCC(=O)N2CC[C@@H](C(=O)O)C2)cn1-c1ccccc1)c1cccc(-c2cn[nH]c2)c1` [Example 25, (R)-1-(3-(2-(3-(1H-pyrazol-4-yl)benzamido)-1-phenyl-1H-imidazol-4-yl)propanoyl)pyrrolidine-3-carboxylic acid] displayed an IC50 of 50 to 100 nM.

In the case of `Cn1cc(-c2cccc(C(=O)Nc3nc(CCCC(=O)N4CCC[C@H](C(=O)O)C4)cn3-c3ccccc3)c2)cn1` [Example 207, (S)-1-(4-(2-(3-(1-methyl-1H-pyrazol-4-yl)benzamido)-1-phenyl-1H-imidazol-4-yl)butanoyl)piperidine-3-carboxylic acid], the IC50 was less than 50 nM.

The compound `O=C(Nc1nc(CCCN2CCSCC2)cn1-c1ccccc1)c1cccc(-c2cn[nH]c2)c1` [Example 110, N-(1-phenyl-4-(3-thiomorpholinopropyl)-1H-imidazol-2-yl)-3-(1H-pyrazol-4-yl)benzamide] returned an IC50 of less than 50 nM.

Consider `COC[C@H]1CCCN1C(=O)CCCc1cn(-c2ccccc2)c(NC(=O)c2cccc(-c3cn[nH]c3)c2)n1` [Example 56, (R)—N-(4-(4-(2-(methoxymethyl)pyrrolidin-1-yl)-4-oxobutyl)-1-phenyl-1H-imidazol-2-yl)-3-(1H-pyrazol-4-yl)benzamide], for which the IC50 was less than 50 nM.

Consider `C[C@@H]1CCCCN1C(=O)CCCCc1cn(-c2ccccc2)c(NC(=O)c2cccc(-c3cn[nH]c3)c2)n1` [Example 83, (R)—N-(4-(5-(2-methylpiperidin-1-yl)-5-oxopentyl)-1-phenyl-1H-imidazol-2-yl)-3-(1H-pyrazol-4-yl)benzamide], for which the IC50 was less than 50 nM.

In the case of `O=C(CCCc1cn(-c2ccccc2)c(NC(=O)c2cccc(-c3ccncc3)c2)n1)NC1CC1` [Example 267, N-(4-(4-(cyclopropylamino)-4-oxobutyl)-1-phenyl-1H-imidazol-2-yl)-3-(pyridin-4-yl)benzamide], the IC50 was less than 50 nM.

Compound `O=C(CCCCCc1cn(-c2ccccc2)c(NC(=O)c2cccc(-c3cn[nH]c3)c2)n1)Nc1ccccc1` [Example 90, N-(4-(6-oxo-6-(phenylamino)hexyl)-1-phenyl-1H-imidazol-2-yl)-3-(1H-pyrazol-4-yl)benzamide] yielded an IC50 of less than 50 nM.

Turning to `Cn1cc(-c2cccc(C(=O)Nc3nc(CCCC(=O)NC4CCNCC4)cn3-c3ccccc3)c2)cn1` [Example 214, 3-(1-methyl-1H-pyrazol-4-yl)-N-(4-(4-oxo-4-(piperidin-4-ylamino)butyl)-1-phenyl-1H-imidazol-2-yl)benzamide], the IC50 is more than 100 nM.

With `COC[C@H]1CCCN1C(=O)Cc1cn(-c2ccccc2)c(NC(=O)c2cccc(-c3cn[nH]c3)c2)n1` [Example 47, (R)—N-(4-(2-(2-(methoxymethyl)pyrrolidin-1-yl)-2-oxoethyl)-1-phenyl-1H-imidazol-2-yl)-3-(1H-pyrazol-4-yl)benzamide], the concentration for half-maximal inhibition (IC50) was more than 100 nM.

As for `Cn1cc(-c2cccc(C(=O)Nc3nc(CCCC(=O)NCCN4CCCCC4)cn3-c3ccccc3)c2)cn1` [Example 159, 3-(1-methyl-1H-pyrazol-4-yl)-N-(4-(4-oxo-4-((2-(piperidin-1-yl)ethyl)amino)butyl)-1-phenyl-1H-imidazol-2-yl)benzamide], the IC50 was less than 50 nM.

Compound `O=C(Nc1nc(CCCCCN2CCOCC2)cn1-c1ccccc1)c1cccc(-c2cn[nH]c2)c1` [Example 119, N-(4-(5-morpholinopentyl)-1-phenyl-1H-imidazol-2-yl)-3-(1H-pyrazol-4-yl)benzamide] yielded an IC50 of less than 50 nM.

Compound `C[C@@H]1CCCCN1C(=O)CCCCCc1cn(-c2ccccc2)c(NC(=O)c2cccc(-c3cn[nH]c3)c2)n1` [Example 96, (R)—N-(4-(6-(2-methylpiperidin-1-yl)-6-oxohexyl)-1-phenyl-1H-imidazol-2-yl)-3-(1H-pyrazol-4-yl)benzamide] registered an IC50 of less than 50 nM.

In the case of `O=C(Nc1nc(CCCCCC(=O)N2CCCCCC2)cn1-c1ccccc1)c1cccc(-c2ccc3[nH]ncc3c2)c1` [Example 241, N-(4-(6-(azepan-1-yl)-6-oxohexyl)-1-phenyl-1H-imidazol-2-yl)-3-(1H-indazol-5-yl)benzamide], the IC50 was less than 50 nM.

`O=C(Nc1nc(CCC(=O)N2CCN(Cc3ccc(OC(F)(F)F)cc3)CC2)cn1-c1ccccc1)c1cccc(-c2cn[nH]c2)c1` [Example 14, N-(4-(3-oxo-3-(4-(4-(trifluoromethoxy)benzyl)piperazin-1-yl)propyl)-1-phenyl-1H-imidazol-2-yl)-3-(1H-pyrazol-4-yl)benzamide] displayed a half-maximal inhibitory concentration (IC50) of more than 100 nM.

`O=C(Nc1nc(CCN2CCCCC2)cn1-c1ccccc1)c1cccc(-c2cn[nH]c2)c1` [Example 104, N-(1-phenyl-4-(2-(piperidin-1-yl)ethyl)-1H-imidazol-2-yl)-3-(1H-pyrazol-4-yl)benzamide]: the IC50 was more than 100 nM.

`O=C(CCc1cn(-c2ccccc2)c(NC(=O)c2cncc(-c3cn[nH]c3)c2)n1)Nc1ccccc1` [Example 4, N-(4-(3-oxo-3-(phenylamino)propyl)-1-phenyl-1H-imidazol-2-yl)-5-(1H-pyrazol-4-yl)nicotinamide] returned an IC50 of more than 100 nM.

`O=C(CCCCc1cn(-c2ccccc2)c(NC(=O)c2cccc(-c3cn[nH]c3)c2)n1)NC1CCCCC1` [Example 89, N-(4-(5-(cyclohexylamino)-5-oxopentyl)-1-phenyl-1H-imidazol-2-yl)-3-(1H-pyrazol-4-yl)benzamide] yielded a half-maximal inhibitory concentration (IC50) of less than 50 nM.

With `COC[C@@H]1CCCN1C(=O)CCc1cn(-c2ccccc2)c(NC(=O)c2cccc(-c3cn[nH]c3)c2)n1` [Example 19, (S)—N-(4-(3-(2-(methoxymethyl)pyrrolidin-1-yl)-3-oxopropyl)-1-phenyl-1H-imidazol-2-yl)-3-(1H-pyrazol-4-yl)benzamide], the concentration for half-maximal inhibition (IC50) is 50 to 100 nM.

`O=C(Nc1nc(CCCCN2CCSCC2)cn1-c1ccccc1)c1cccc(-c2cn[nH]c2)c1` [Example 115, N-(1-phenyl-4-(4-thiomorpholinobutyl)-1H-imidazol-2-yl)-3-(1H-pyrazol-4-yl)benzamide]: the IC50 is less than 50 nM.

In turn, `O=C(Nc1nc(CCCCN2CCOCC2)cn1-c1ccccc1)c1cccc(-c2cn[nH]c2)c1` [Example 114, N-(4-(4-morpholinobutyl)-1-phenyl-1H-imidazol-2-yl)-3-(1H-pyrazol-4-yl)benzamide] had an IC50 of less than 50 nM.

With `O=C(Nc1nc(CCCCCCN2CCCCC2)cn1-c1ccccc1)c1cccc(-c2cn[nH]c2)c1` [Example 102, N-(1-phenyl-4-(6-(piperidin-1-yl)hexyl)-1H-imidazol-2-yl)-3-(1H-pyrazol-4-yl)benzamide], the IC50 is less than 50 nM.

As for `Cn1cc(-c2cccc(C(=O)Nc3nc(CCCC(=O)N4CCN(c5ccccc5)CC4)cn3-c3ccccc3)c2)cn1` [Example 188, 3-(1-methyl-1H-pyrazol-4-yl)-N-(4-(4-oxo-4-(4-phenylpiperazin-1-yl)butyl)-1-phenyl-1H-imidazol-2-yl)benzamide], the IC50 is less than 50 nM.

As to `CNC(=O)Cc1cn(-c2ccccc2)c(NC(=O)c2ccc3[nH]ncc3c2)n1` [Example 49, N-(4-(2-(methylamino)-2-oxoethyl)-1-phenyl-1H-imidazol-2-yl)-1H-indazole-5-carboxamide], the IC50 was more than 100 nM.

One may read the IC50 as the concentration needed to halve the response being measured. Read a high IC50 as a need for much substance.
